Data reported in PMC7340670, “Phase I study of TAS-115, a novel oral multi-kinase inhibitor, in patients with advanced solid tumors” (Investigational New Drugs, 2019).
Entries after “also recorded” stand apart in the source; their conditions may differ.

Tests used:
[1] = test system: patients with advanced solid tumors; experiment: Phase I study (JapicCTI-132333): safety, tolerability, DLT, MTD, RP2D; assay type: in vivo
Protocol: This is an open-label, nonrandomized, dose-escalation study conducted at five sites in Japan. The study has three parts: a dose-escalation cohort using a traditional 3 + 3 design (part 1), a dosing schedule investigation cohort (part 2), and an expansion cohort to assess the safety at the MTD or lower doses among more patients (expansion part).
For each dose level in part 1, three to six patients were enrolled. DLTs were evaluated during the first cycle. […] The study drug was orally administered under empty stomach conditions (1 h before or 2 h after a meal) with a cup of water. […] In the expansion part, ≤MTD was investigated for exposure and safety.
All patients in parts 1 and 2 were required to be hospitalized for cycle 1 in order to observe AE. Patients continued to receive the study drug until disease progression or intolerable toxicity. […] The number of dose reductions was up to 2, and the minimum dose was 100 mg/day. […]

[2] = test system: recombinant MET; design: method as in PMID 24140932; conditions: read-out: IC50 against recombinant MET; cited from earlier work
[3] = test system: tumor growth and abnormal bone remodeling; design: method as in PMID 24140932, PMID 27539855, PMID 27736957; conditions: cited from earlier work
[4] = Part 1, 200–800 mg/day, SID (N = 21), patients (%)
[5] = Part 2 + Expansion part, 450 or 650 mg/day, 5-on/2-off (N = 61), patients (%)
[6] = part 2 and expansion part (N = 61)

CNC(=O)c1cc2c(Oc3ccc(NC(=S)NC(=O)Cc4ccccc4)cc3F)ccnc2cc1OC [TAS-115]
CRPC patients with AEs requiring dose reduction ([1]; 650 mg/day, early expansion part): five of six
Treatment-related adverse events: Alanine aminotransferase increased, Any Grade [1, 4]: 11 (52.4)
Treatment-related adverse events: Alanine aminotransferase increased, ≥ Grade 3 [1, 4]: 0 (0.0)
Treatment-related adverse events: Amylase increased, Any Grade [1, 4]: 8 (38.1)
Treatment-related adverse events: Amylase increased, ≥ Grade 3 [1, 4]: 3 (14.3)
Treatment-related adverse events: Anemia, Any Grade [1, 4]: 2 (9.5)
Treatment-related adverse events: Anemia, ≥ Grade 3 [1, 4]: 2 (9.5)
Treatment-related adverse events: Any Events, Any Grade [1, 4]: 21 (100.0)
Treatment-related adverse events: Any Events, ≥ Grade 3 [1, 4]: 13 (61.9)
Treatment-related adverse events: Aspartate aminotransferase increased, Any Grade [1, 4]: 15 (71.4)
Treatment-related adverse events: Aspartate aminotransferase increased, ≥ Grade 3 [1, 4]: 0 (0.0)
Treatment-related adverse events: Decreased appetite, Any Grade [1, 4]: 7 (33.3)
Treatment-related adverse events: Decreased appetite, ≥ Grade 3 [1, 4]: 1 (4.8)
Treatment-related adverse events: Diarrhea, Any Grade [1, 4]: 3 (14.3)
Treatment-related adverse events: Diarrhea, ≥ Grade 3 [1, 4]: 0 (0.0)
Treatment-related adverse events: Edema, Any Grade [1, 4]: 6 (28.6)
Treatment-related adverse events: Edema, ≥ Grade 3 [1, 4]: 0 (0.0)
Treatment-related adverse events: Face edema, Any Grade [1, 4]: 6 (28.6)
Treatment-related adverse events: Face edema, ≥ Grade 3 [1, 4]: 0 (0.0)
Treatment-related adverse events: Fatigue, Any Grade [1, 4]: 10 (47.6)
Treatment-related adverse events: Fatigue, ≥ Grade 3 [1, 4]: 0 (0.0)
Treatment-related adverse events: Hypophosphatemia, Any Grade [1, 4]: 6 (28.6)
Treatment-related adverse events: Hypophosphatemia, ≥ Grade 3 [1, 4]: 5 (23.8)
Treatment-related adverse events: Leukocytopenia, Any Grade [1, 4]: 8 (38.1)
Treatment-related adverse events: Leukocytopenia, ≥ Grade 3 [1, 4]: 2 (9.5)
Treatment-related adverse events: Lipase increased, Any Grade [1, 4]: 6 (28.6)
Treatment-related adverse events: Lipase increased, ≥ Grade 3 [1, 4]: 5 (23.8)
Treatment-related adverse events: Nausea, Any Grade [1, 4]: 7 (33.3)
Treatment-related adverse events: Nausea, ≥ Grade 3 [1, 4]: 0 (0.0)
Treatment-related adverse events: Neutropenia, Any Grade [1, 4]: 8 (38.1)
Treatment-related adverse events: Neutropenia, ≥ Grade 3 [1, 4]: 3 (14.3)
Treatment-related adverse events: Rash, Any Grade [1, 4]: 12 (57.1)
Treatment-related adverse events: Rash, ≥ Grade 3 [1, 4]: 2 (9.5)
Treatment-related adverse events: Thrombocytopenia, Any Grade [1, 4]: 8 (38.1)
Treatment-related adverse events: Thrombocytopenia, ≥ Grade 3 [1, 4]: 1 (4.8)
Treatment-related adverse events: Vomiting, Any Grade [1, 4]: 4 (19.0)
Treatment-related adverse events: Vomiting, ≥ Grade 3 [1, 4]: 0 (0.0)
Treatment-related adverse events: Alanine aminotransferase increased, Any Grade [1, 5]: 23 (37.7)
Treatment-related adverse events: Alanine aminotransferase increased, ≥ Grade 3 [1, 5]: 1 (1.6)
Treatment-related adverse events: Amylase increased, Any Grade [1, 5]: 10 (16.4)
Treatment-related adverse events: Amylase increased, ≥ Grade 3 [1, 5]: 1 (1.6)
Treatment-related adverse events: Anemia, Any Grade [1, 5]: 21 (34.4)
Treatment-related adverse events: Anemia, ≥ Grade 3 [1, 5]: 9 (14.8)
Treatment-related adverse events: Any Events, Any Grade [1, 5]: 60 (98.4)
Treatment-related adverse events: Any Events, ≥ Grade 3 [1, 5]: 47 (77.0)
Treatment-related adverse events: Aspartate aminotransferase increased, Any Grade [1, 5]: 31 (50.8)
Treatment-related adverse events: Aspartate aminotransferase increased, ≥ Grade 3 [1, 5]: 4 (6.6)
Treatment-related adverse events: Decreased appetite, Any Grade [1, 5]: 26 (42.6)
Treatment-related adverse events: Decreased appetite, ≥ Grade 3 [1, 5]: 6 (9.8)
Treatment-related adverse events: Diarrhea, Any Grade [1, 5]: 14 (23.0)
Treatment-related adverse events: Diarrhea, ≥ Grade 3 [1, 5]: 0 (0.0)
Treatment-related adverse events: Edema, Any Grade [1, 5]: 10 (16.4)
Treatment-related adverse events: Edema, ≥ Grade 3 [1, 5]: 0 (0.0)
Treatment-related adverse events: Face edema, Any Grade [1, 5]: 11 (18.0)
Treatment-related adverse events: Face edema, ≥ Grade 3 [1, 5]: 0 (0.0)
Treatment-related adverse events: Fatigue, Any Grade [1, 5]: 27 (44.3)
Treatment-related adverse events: Fatigue, ≥ Grade 3 [1, 5]: 1 (1.6)
Treatment-related adverse events: Hypophosphatemia, Any Grade [1, 5]: 20 (32.8)
Treatment-related adverse events: Hypophosphatemia, ≥ Grade 3 [1, 5]: 13 (21.3)
Treatment-related adverse events: Leukocytopenia, Any Grade [1, 5]: 18 (29.5)
Treatment-related adverse events: Leukocytopenia, ≥ Grade 3 [1, 5]: 7 (11.5)
Treatment-related adverse events: Lipase increased, Any Grade [1, 5]: 9 (14.8)
Treatment-related adverse events: Lipase increased, ≥ Grade 3 [1, 5]: 4 (6.6)
Treatment-related adverse events: Nausea, Any Grade [1, 5]: 26 (42.6)
Treatment-related adverse events: Nausea, ≥ Grade 3 [1, 5]: 1 (1.6)
Treatment-related adverse events: Neutropenia, Any Grade [1, 5]: 21 (34.4)
Treatment-related adverse events: Neutropenia, ≥ Grade 3 [1, 5]: 15 (24.6)
Treatment-related adverse events: Rash, Any Grade [1, 5]: 15 (24.6)
Treatment-related adverse events: Rash, ≥ Grade 3 [1, 5]: 1 (1.6)
Treatment-related adverse events: Thrombocytopenia, Any Grade [1, 5]: 19 (31.1)
Treatment-related adverse events: Thrombocytopenia, ≥ Grade 3 [1, 5]: 9 (14.8)
Treatment-related adverse events: Vomiting, Any Grade [1, 5]: 19 (31.1)
Treatment-related adverse events: Vomiting, ≥ Grade 3 [1, 5]: 1 (1.6)
recommended phase II dose (RP2D) ([1]; SID, 5-on/2-off for 21 days per cycle, estimated): 650 mg
treatment-related death ([1]; any study part, during treatment or within 28 days of the last dose): No treatment-related death was observed
patients with TRAEs leading to dose interruption ([1]; cohorts 650 mg and 800 mg in part 1): All the patients
Serious AEs ([1]; expansion part): thirty one patients
Serious TRAEs ([1]; expansion part): decreased appetite (three patients), nausea (two patients), interstitial lung disease, rash, enterocolitis, fatigue, thrombocytopenia, and pyrexia (one patient each)
AEs resulted in death ([1]; expansion part (650 mg), not considered related to TAS-115): hepatic failure, disease progression and respiratory failure occurred in one patient each
Serious AEs ([1]; part 1): seven patients
Serious TRAEs ([1]; part 1): tumor hemorrhage and decreased appetite (one patient, 650 mg each), thrombocytopenia (one patient, 800 mg)
TRAEs that led to treatment discontinuation ([1]; part 1): rash (one patient, 800 mg)
Grade ≥3 TRAEs ([1]; part 1 (N = 21)): 13 patients
Treatment-related adverse events: Any Events, Total ([1]; part 1, 200 mg SID (N=3)): 3 (100.0) N (%)
Treatment-related adverse events: Any Events, ≥ Grade 3 ([1]; part 1, 200 mg SID (N=3)): 1 (33.3) N (%)
Treatment-related adverse events: Investigations, Total ([1]; part 1, 200 mg SID (N=3)): 2 (66.7) N (%)
Treatment-related adverse events: Investigations, ≥ Grade 3 ([1]; part 1, 200 mg SID (N=3)): 1 (33.3) N (%)
Treatment-related adverse events: Any Events, Total ([1]; part 1, 300 mg SID (N=3)): 3 (100.0) N (%)
Treatment-related adverse events: Any Events, ≥ Grade 3 ([1]; part 1, 300 mg SID (N=3)): 2 (66.7) N (%)
Treatment-related adverse events: Investigations, Total ([1]; part 1, 300 mg SID (N=3)): 2 (66.7) N (%)
Treatment-related adverse events: Investigations, ≥ Grade 3 ([1]; part 1, 300 mg SID (N=3)): 2 (66.7) N (%)
Treatment-related adverse events: Any Events, Total ([1]; part 1, 450 mg SID (N=3)): 3 (100.0) N (%)
Treatment-related adverse events: Any Events, ≥ Grade 3 ([1]; part 1, 450 mg SID (N=3)): 2 (66.7) N (%)
Treatment-related adverse events: Investigations, Total ([1]; part 1, 450 mg SID (N=3)): 3 (100.0) N (%)
Treatment-related adverse events: Investigations, ≥ Grade 3 ([1]; part 1, 450 mg SID (N=3)): 2 (66.7) N (%)
treatment interruption during cycle 1 ([1]; part 1, 650 mg SID): all patients who received 650 mg SID required treatment interruption; also recorded: all patients who received 650 mg SID had treatment interruption
Treatment-related adverse events: Any Events, Total ([1]; part 1, 650 mg SID (N=6)): 6 (100.0) N (%)
Treatment-related adverse events: Any Events, ≥ Grade 3 ([1]; part 1, 650 mg SID (N=6)): 5 (83.3) N (%)
Treatment-related adverse events: Investigations, Total ([1]; part 1, 650 mg SID (N=6)): 6 (100.0) N (%)
Treatment-related adverse events: Investigations, ≥ Grade 3 ([1]; part 1, 650 mg SID (N=6)): 3 (50.0) N (%)
Treatment-related adverse events: Any Events, Total ([1]; part 1, 800 mg SID (N=6)): 6 (100.0) N (%)
Treatment-related adverse events: Any Events, ≥ Grade 3 ([1]; part 1, 800 mg SID (N=6)): 3 (50.0) N (%)
Treatment-related adverse events: Investigations, Total ([1]; part 1, 800 mg SID (N=6)): 4 (66.7) N (%)
Treatment-related adverse events: Investigations, ≥ Grade 3 ([1]; part 1, 800 mg SID (N=6)): 1 (16.7) N (%)
dose dependence of TRAEs ([1]; part 1, 200–800 mg SID): no dose-dependent increase in the incidence and grade of TRAEs was observed
DLTs overall ([1]; part 1, 200–800 mg SID, 21 patients): Three dose-limiting toxicities; also recorded: three DLTs
maximum tolerated dose (MTD) ([1]; part 1, SID, 21 days per cycle, granule formulation): 650 mg
DLTs at 650 mg SID ([1]; part 1, cycle 1, N = 6): grade 3 rash in one patient
DLTs at 800 mg SID ([1]; part 1, cycle 1, N = 6): grade 3 thrombocytopenia with bleeding and grade 3 rash each in one patient
Serious AEs ([1]; part 2): two patients
Serious TRAEs ([1]; part 2): peritonitis (one patient)
treatment interruption in cycle 1 ([1]; part 2, 650 mg SID 5-on/2-off): no patients required treatment interruption
DLTs at 650 mg SID 5-on/2-off ([1]; part 2, cycle 1, six patients): No DLTs were observed; also recorded: no DLTs were reported
TRAEs that led to treatment discontinuation ([1]; part 2 and expansion part): rash (two patients, 650 mg), pyrexia, peritonitis and neutropenia (one patient each, 650 mg)
TRAE anemia, any grade [1, 6]: 34.4%
TRAE decreased appetite, any grade [1, 6]: 42.6%
TRAE fatigue, any grade [1, 6]: 44.3%
TRAE hypophosphatemia, any grade [1, 6]: 32.8%
TRAE increased ALT, any grade [1, 6]: 37.7%
TRAE increased AST, any grade [1, 6]: 50.8%
TRAE nausea, any grade [1, 6]: 42.6%
TRAE neutropenia, any grade [1, 6]: 34.4%
TRAE thrombocytopenia, any grade [1, 6]: 31.1%
TRAE vomiting, any grade [1, 6]: 31.1%
grade ≥3 TRAE anemia [1, 6]: 14.8%
grade ≥3 TRAE hypophosphatemia [1, 6]: 21.3%
grade ≥3 TRAE leukocytopenia [1, 6]: 11.5%
grade ≥3 TRAE neutropenia [1, 6]: 24.6%
grade ≥3 TRAE thrombocytopenia [1, 6]: 14.8%
frequency of TRAEs leading to dose interruption ([1]; part 2 and the expansion part): approximately 77%
tolerability ([1]; patients with advanced solid tumors, up to 650 mg 5-on/2-off): generally well tolerated
IC50 [2]: 0.032 µM
antitumor effect in mouse xenograft models [3]: potent antitumor effect, inhibiting tumor growth and abnormal bone remodeling
